Laboratory results: the supplement of paper PMC10307832

What was measured:
Test in all cases: relative viability (nuclei count vs DMSO), 5 days (fraction); higher = more cells survive
Trametinib + Palbociclib = compound: CC(=O)Nc1cccc(-n2c(=O)n(C3CC3)c(=O)c3c(Nc4ccc(I)cc4F)n(C)c(=O)c(C)c32)c1 [Trametinib] + CC(=O)c1c(C)c2cnc(Nc3ccc(N4CCNCC4)cn3)nc2n(C2CCCC2)c1=O [Palbociclib] (partner 0.5 µM)
In short: (§1)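 After 5 days of treatment, lung cancer cells in 1536-well plates were fixed and stained in a single step (final 0.05% Triton X-100, 1% formaldehyde, 1 ug/ml Hoechst) and their nuclei counted on 4× images. Treatment had been applied by pin tool the day after seeding as one drug alone or as a fixed anchor-drug dose with five library-drug doses (not always all listed) in √10 steps. Relative viability is the nuclei count of treated wells divided by that of vehicle wells, and values are medians of duplicate plates.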

Trametinib + Luminespib = compound: CC(=O)Nc1cccc(-n2c(=O)n(C3CC3)c(=O)c3c(Nc4ccc(I)cc4F)n(C)c(=O)c(C)c32)c1 [Trametinib] + CCNC(=O)c1noc(-c2cc(C(C)C)c(O)cc2O)c1-c1ccc(CN2CCOCC2)cc1 [Luminespib] (partner 0.01 µM)
In short: as §1

Trametinib + Olaparib = compound: CC(=O)Nc1cccc(-n2c(=O)n(C3CC3)c(=O)c3c(Nc4ccc(I)cc4F)n(C)c(=O)c(C)c32)c1 [Trametinib] + O=C(c1cc(Cc2n[nH]c(=O)c3ccccc23)ccc1F)N1CCN(C(=O)C2CC2)CC1 [Olaparib] (partner 8 µM)
In short: as §1

[1] = compound: CN1C=C(C2=CC=CC=C21)/C=C\3/C4=C(C=CC=N4)NC3=O + Nc1ncn([C@H]2C[C@H](O)[C@@H](CO)O2)c(=O)n1 [Decitabine] (partner 2 µM)
In short: as §1

| Cell Line | relative viability (Trametinib + Palbociclib; first compound 0.0025 µM) | relative viability (Trametinib + Palbociclib; first compound 0.007906 µM) | relative viability (Trametinib + Palbociclib; first compound 0.025 µM) | relative viability (Trametinib + Palbociclib; first compound 0.07906 µM) | relative viability (Trametinib + Palbociclib; first compound 0.25 µM) | relative viability (Trametinib + Luminespib; first compound 0.0025 µM) | relative viability (Trametinib + Luminespib; first compound 0.007906 µM) | relative viability (Trametinib + Luminespib; first compound 0.025 µM) | relative viability (Trametinib + Luminespib; first compound 0.07906 µM) | relative viability (Trametinib + Luminespib; first compound 0.25 µM) | relative viability (Trametinib + Olaparib; first compound 0.0025 µM) | relative viability (Trametinib + Olaparib; first compound 0.007906 µM) | relative viability (Trametinib + Olaparib; first compound 0.025 µM) | relative viability (Trametinib + Olaparib; first compound 0.07906 µM) | relative viability (Trametinib + Olaparib; first compound 0.25 µM) | relative viability ([1]; first compound 0.02 µM) | relative viability ([1]; first compound 0.06325 µM) | relative viability ([1]; first compound 0.2 µM) | relative viability ([1]; first compound 0.6325 µM) | relative viability ([1]; first compound 2 µM) |
| --- | --- | --- | --- | --- | --- | --- | --- | --- | --- | --- | --- | --- | --- | --- | --- | --- | --- | --- | --- | --- |
| NCI-H2126 | 0.331 | 0.346 | 0.33 | 0.304 | 0.349 | 0.871 | 0.754 | 0.509 | 0.731 | 0.564 | 0.801 | 0.822 | 0.742 | 0.753 | 0.615 | 0.631 | 0.585 | 0.569 | 0.536 | 0.508 |
| 201T | 0.344 | 0.321 | 0.284 | 0.322 | 0.272 | 1.08 | 0.866 | 0.856 | 0.852 | 0.8 | 0.841 | 0.782 | 0.747 | 0.678 | 0.642 | 0.857 | 0.891 | 0.859 | 0.885 | 0.917 |
| NCI-H358 | 0.133 | 0.122 | 0.147 | 0.129 | 0.117 | 0.264 | 0.18 | 0.132 | 0.107 | 0.11 | 0.47 | 0.303 | 0.186 | 0.185 | 0.127 | 0.233 | 0.186 | 0.195 | 0.204 | 0.246 |
| SK-LU-1 | 0.416 | 0.319 | 0.307 | 0.296 | 0.259 | 0.216 | 0.187 | 0.176 | 0.17 | 0.159 | 0.429 | 0.364 | 0.406 | 0.311 | 0.274 | 0.484 | 0.499 | 0.578 | 0.617 | 0.6 |
| H3255 | 0.339 | 0.356 | 0.357 | 0.342 | 0.365 | 1.07 | 0.928 | 0.581 | 0.601 | 0.236 | 0.559 | 0.533 | 0.476 | 0.461 | 0.411 | 0.796 |  | 0.57 | 0.563 | 0.491 |
| LOU-NH91 | 0.604 | 0.524 | 0.561 | 0.552 | 0.453 | 0.348 | 0.365 | 0.278 | 0.305 | 0.279 | 0.893 | 0.829 | 0.849 | 0.809 | 0.483 | 0.77 | 0.799 | 0.771 | 0.713 | 0.788 |
| NCI-H1666 | 0.695 | 0.662 | 0.665 | 0.66 | 0.686 | 0.95 | 0.912 | 0.717 | 0.72 | 0.573 | 0.735 | 0.699 | 0.706 | 0.755 | 0.726 | 0.7 | 0.701 | 0.591 | 0.764 | 0.658 |
| SK-MES-1 | 0.358 | 0.357 | 0.319 | 0.354 | 0.26 | 0.498 | 0.368 | 0.277 | 0.231 | 0.207 | 0.841 | 0.737 | 0.546 | 0.373 | 0.245 | 0.37 | 0.336 | 0.369 | 0.38 | 0.369 |
| NCI-H2023 | 0.348 | 0.3 | 0.24 | 0.196 | 0.119 | 0.582 | 0.403 | 0.51 | 0.575 | 0.197 | 0.492 | 0.448 | 0.419 | 0.447 | 0.294 | 0.245 | 0.215 | 0.193 | 0.229 | 0.245 |
| COR-L 105 | 0.39 | 0.44 | 0.421 | 0.34 | 0.347 | 0.685 | 0.587 | 0.415 | 0.271 | 0.344 | 0.738 | 0.76 | 0.498 | 0.466 | 0.417 | 0.633 | 0.745 | 0.63 | 0.68 | 0.64 |
| NCI-H2342 | 0.48 | 0.511 | 0.425 | 0.446 | 0.477 | 0.728 | 0.582 |  | 0.587 | 0.604 | 0.404 | 0.4 | 0.327 | 0.359 | 0.399 | 0.685 | 0.702 | 0.674 | 0.693 | 0.623 |
| NCI-H838 | 0.207 | 0.183 | 0.162 | 0.159 | 0.202 | 0.289 | 0.291 | 0.247 | 0.204 | 0.208 | 0.703 | 0.675 | 0.622 | 0.674 | 0.587 | 0.431 | 0.447 | 0.446 | 0.433 | 0.449 |
| SW 1573 | 0.36 | 0.301 | 0.298 | 0.158 | 0.17 | 0.181 | 0.237 | 0.13 | 0.157 | 0.163 | 0.414 | 0.456 | 0.407 | 0.342 | 0.223 | 0.477 | 0.498 | 0.514 | 0.542 | 0.458 |
